{
  "source": "ChEMBL document CHEMBL4420075",
  "about": "“Seriniquinones, melanoma-specific anticancer agents” (2016)",
  "key": {"[1]": {"test_system": "HCT-116", "test": "Induction of autophagy in human HCT116 cells assessed as increase in of LC3A-II level at 17 uM incubated for 24 hrs by Western blot analysis", "type": "functional, cell-based"}, "[2]": {"test_system": "HCT-116", "test": "Induction of autophagy in human HCT116 cells assessed as increase in of LC3B-II level at 17 uM incubated for 24 hrs by Western blot analysis", "type": "functional, cell-based"}, "[3]": {"test_system": "HCT-116", "test": "Induction of autophagy in human HCT116 cells assessed as increase in of LC3A-II level incubated for 24 hrs by Western blot analysis", "type": "functional, cell-based"}, "[4]": {"test_system": "HCT-116", "test": "Induction of autophagy in human HCT116 cells assessed as increase in of LC3B-II level incubated for 24 hrs by Western blot analysis", "type": "functional, cell-based"}, "[5]": {"test_system": "HCT-116", "test": "Induction of DNA fragmentation in human HCT116 cells at 0.3 to 30 uM incubated for 24 hrs by FACS analysis", "type": "functional, cell-based"}, "[6]": {"test_system": "HCT-116", "test": "Induction of cell cycle arrest in human HCT116 cells assessed as accumulation at S phase at 0.3 to 30 uM incubated for 18 to 24 hrs by propidium iodide staining based assay", "type": "functional"}, "[7]": {"test": "Drug accumulation in human HCT116 cells assessed as sub-cellular localization at 5 uM incubated for 1 hr by DAPI staining based", "type": "ADME, cell-based", "conditions": "hct-116, 1 h"}, "[8]": {"test": "Drug accumulation in human PC3M cells assessed as sub-cellular localization at 30 uM incubated for 1 hr by DAPI staining based", "type": "ADME, cell-based", "conditions": "pc-3m"}, "[9]": {"test": "Drug accumulation in human SF295 cells assessed as sub-cellular localization at 30 uM incubated for 1 hr by DAPI staining based", "type": "ADME, cell-based", "conditions": "sf-295, 1 h"}, "[10]": {"test": "Drug accumulation in human HCT8 cells assessed as sub-cellular localization at 30 uM incubated for 1 hr by DAPI staining based", "type": "ADME, cell-based", "conditions": "hct-8, 1 h"}, "[11]": {"test": "Drug accumulation in human MALME-3M cells assessed as sub-cellular localization at 30 uM incubated for 1 hr by DAPI staining based", "type": "ADME, cell-based"}, "[12]": {"test": "Drug accumulation in human PC3 cells assessed as sub-cellular localization in endoplasmic reticulum at 30 uM incubated for 1 hr by time course imaging assay", "type": "ADME, subcellular", "conditions": "pc-3, 1 h"}, "[13]": {"test_system": "PC-3", "test": "Induction of auto-phagocytosis in human PC3 cells at 30 uM incubated for 1 hr by time course imaging assay", "type": "functional, cell-based"}, "[14]": {"test": "Drug accumulation in human HCT116 cells assessed as sub-cellular localization in endoplasmic reticulum measured up to 9 hrs by ER-tracker-blue based confocal microscopy", "type": "ADME, subcellular", "conditions": "hct-116, 9 h"}, "[15]": {"test": "Drug accumulation in human HCT116 cells assessed as sub-cellular localization in autophagosomes measured after 6 hrs by dansyl-cadaverine based confocal microscopy", "type": "ADME, subcellular, Autophagosome", "conditions": "hct-116, 6 h"}, "[16]": {"test": "Drug accumulation in human MALME-3M cells assessed as sub-cellular localization in endoplasmic reticulum measured up to 9 hrs by ER-tracker-blue based confocal microscopy", "type": "ADME, subcellular"}, "[17]": {"test": "Drug accumulation in human MALME-3M cells assessed as sub-cellular localization in autophagosomes measured after 6 hrs by dansyl-cadaverine based confocal microscopy", "type": "ADME, subcellular, Autophagosome"}, "[18]": {"test_system": "HCT-116", "test": "Reduction in cyclin D1 protein expression in human HCT116 cells at 3 to 30 uM incubated for 24 hrs by Western blot analysis", "type": "functional, cell-based"}, "[19]": {"test_system": "HCT-116", "test": "Reduction in cyclin D2 protein expression in human HCT116 cells at 3 to 30 uM incubated for 24 hrs by Western blot analysis", "type": "functional, cell-based"}, "[20]": {"test_system": "HCT-116", "test": "Reduction in cyclin D3 protein expression in human HCT116 cells at 3 to 30 uM incubated for 24 hrs by Western blot analysis", "type": "functional, cell-based"}, "[21]": {"test_system": "HCT-116", "test": "Induction of apoptosis in human HCT116 cells assessed as induction of caspase-3 cleavage at 3 to 30 uM incubated for 24 hrs by Western blot analysis", "type": "functional, cell-based"}, "[22]": {"test_system": "HCT-116", "test": "Induction of apoptosis in human HCT116 cells assessed as induction of caspase-7 cleavage at 3 to 30 uM incubated for 24 hrs by Western blot analysis", "type": "functional, cell-based"}, "[23]": {"test_system": "HCT-116", "test": "Induction of apoptosis in human HCT116 cells assessed as induction of caspase-9 cleavage at 3 to 30 uM incubated for 24 hrs by Western blot analysis", "type": "functional, cell-based"}, "[24]": {"test_system": "HCT-116", "test": "Induction of apoptosis in human HCT116 cells assessed as induction of PARP cleavage at 3 to 30 uM incubated for 24 hrs by Western blot analysis", "type": "functional, cell-based"}, "[25]": {"target": "T1, Dermcidin (Homo sapiens) (UniProt P81605)", "T1 sequence (whole entry)": "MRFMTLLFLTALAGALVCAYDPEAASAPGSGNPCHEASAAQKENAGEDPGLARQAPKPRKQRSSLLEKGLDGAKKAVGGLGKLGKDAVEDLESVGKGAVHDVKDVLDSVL", "test": "Covalent binding affinity to DCD-1L (unknown origin) at 50 uM incubated for 24 hrs by denatured SDS-PAGE gel electrophoresis"}, "[26]": {"target": "T1, Dermcidin (Homo sapiens)", "test": "Binding affinity to dermcidin in human HCT116 cell lysates at 3 to 30 uM incubated for 8 hrs by anti-IAF mAb based immunoprecipitation assay", "type": "subcellular", "conditions": "Lysate"}, "[27]": {"target": "T1, Dermcidin (Homo sapiens)", "test": "Binding affinity to dermcidin in human HCT116 cells at 50 uM incubated for 8 hrs by anti-IAF mAb based immunoprecipitation assay", "type": "cell-based"}, "[28]": {"target": "T1, Dermcidin (Homo sapiens)", "test": "Binding affinity to dermcidin in human HCT116 cells at 50 uM incubated for 8 hrs by LC-MS/MS analysis", "type": "cell-based"}, "[29]": {"target": "Glyceraldehyde-3-phosphate dehydrogenase (Homo sapiens) (UniProt P04406)", "sequence (P04406 2-335 limits assumed)": "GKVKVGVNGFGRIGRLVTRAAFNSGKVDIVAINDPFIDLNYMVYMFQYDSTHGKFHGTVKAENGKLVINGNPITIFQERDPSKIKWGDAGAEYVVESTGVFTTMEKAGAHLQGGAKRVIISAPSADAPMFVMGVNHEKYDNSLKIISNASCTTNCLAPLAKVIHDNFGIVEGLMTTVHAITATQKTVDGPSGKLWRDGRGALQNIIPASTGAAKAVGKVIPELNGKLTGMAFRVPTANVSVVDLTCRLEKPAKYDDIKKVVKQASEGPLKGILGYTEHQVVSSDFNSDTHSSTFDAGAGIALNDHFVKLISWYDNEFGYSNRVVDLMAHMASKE", "test": "Binding affinity to GADPH in human HCT116 cells at 50 uM incubated for 8 hrs by LC-MS/MS analysis", "type": "cell-based"}, "[30]": {"species_on_record": "Homo sapiens", "test": "Binding affinity to actin in human HCT116 cells at 50 uM incubated for 8 hrs by LC-MS/MS analysis", "type": "cell-based"}, "[31]": {"species_on_record": "Homo sapiens", "test": "Binding affinity to HSP70 in human HCT116 cells at 50 uM incubated for 8 hrs by LC-MS/MS analysis", "type": "cell-based"}, "[32]": {"target": "T1, Dermcidin (Homo sapiens)", "test": "Covalent binding affinity to dermcidin in human HCT116 cell lysates at 30 uM incubated for 8 hrs by Western blot analysis", "type": "subcellular", "conditions": "Lysate"}, "[33]": {"target": "Glyceraldehyde-3-phosphate dehydrogenase (Homo sapiens) (UniProt P04406)", "test": "Covalent binding affinity to GADPH in human HCT116 cell lysates at 30 uM incubated for 8 hrs by Western blot analysis", "type": "subcellular", "conditions": "Lysate"}},
  "note": "Activity calls are given as the source filed them. No cut-off for these calls is given here.",
  "data": [
    {"smiles": "COc1cc([C@@H]2c3cc4c(cc3[C@@H](O[C@@H]3O[C@@H]5CO[C@@H](C)O[C@H]5[C@H](O)[C@H]3O)[C@H]3COC(=O)[C@H]23)OCO4)cc(OC)c1O", "values": [
      {"measurement": "Activity", "setting": "[1]", "result": "Active"},
      {"measurement": "Activity", "setting": "[2]", "result": "Active"}
    ]},
    {"smiles": "O=c1c2ccccc2c(=O)c2c1sc1c(=O)c3ccccc3c(=O)c12", "values": [
      {"measurement": "Activity", "setting": "[3]", "result": "Dose-dependent effect"},
      {"measurement": "Activity", "setting": "[4]", "result": "Dose-dependent effect"},
      {"measurement": "Activity", "setting": "[5]", "result": "Dose-dependent effect"},
      {"measurement": "Activity", "setting": "[6]", "result": "Dose-dependent effect"},
      {"measurement": "Drug uptake", "setting": "[7]", "result": "Active"},
      {"measurement": "Drug uptake", "setting": "[8]", "result": "Active"},
      {"measurement": "Drug uptake", "setting": "[9]", "result": "Active"},
      {"measurement": "Drug uptake", "setting": "[10]", "result": "Active"},
      {"measurement": "Drug uptake", "setting": "[11]", "result": "Active"},
      {"measurement": "Drug uptake", "setting": "[12]", "result": "Active"},
      {"measurement": "Activity", "setting": "[13]", "result": "Active"},
      {"measurement": "Drug uptake", "setting": "[14]", "result": "Active"},
      {"measurement": "Drug uptake", "setting": "[15]", "result": "Active"},
      {"measurement": "Drug uptake", "setting": "[16]", "result": "Active"},
      {"measurement": "Drug uptake", "setting": "[17]", "result": "Active"},
      {"measurement": "Activity", "setting": "[18]", "result": "Active"},
      {"measurement": "Activity", "setting": "[19]", "result": "Active"},
      {"measurement": "Activity", "setting": "[20]", "result": "Active"},
      {"measurement": "Activity", "setting": "[21]", "result": "Active"},
      {"measurement": "Activity", "setting": "[22]", "result": "Active"},
      {"measurement": "Activity", "setting": "[23]", "result": "Active"},
      {"measurement": "Activity", "setting": "[24]", "result": "Active"},
      {"measurement": "Activity", "setting": "[25]", "result": "Active"}
    ]},
    {"smiles": "CN(C)c1ccc2c(CC(=O)NCCCCCCNC(=O)CCc3ccc4c(=O)c5c(sc6c(=O)c7ccccc7c(=O)c65)c(=O)c4c3)cc(=O)oc2c1", "values": [
      {"measurement": "Drug uptake", "setting": "[14]", "result": "Active"},
      {"measurement": "Drug uptake", "setting": "[15]", "result": "Active"},
      {"measurement": "Drug uptake", "setting": "[16]", "result": "Active"},
      {"measurement": "Drug uptake", "setting": "[17]", "result": "Active"},
      {"measurement": "Activity", "setting": "[26]", "result": "Active"},
      {"measurement": "Activity", "setting": "[27]", "result": "Active"},
      {"measurement": "Activity", "setting": "[28]", "result": "Active"},
      {"measurement": "Activity", "setting": "[29]", "result": "Active"},
      {"measurement": "Activity", "setting": "[30]", "result": "Active"},
      {"measurement": "Activity", "setting": "[31]", "result": "Active"},
      {"measurement": "Activity", "setting": "[32]", "result": "Active"},
      {"measurement": "Activity", "setting": "[33]", "result": "Active"}
    ]}
  ]
}
